Measured values: patent US10428074B2, “Pyrrole heteroaryl ring derivative and method of use thereof” (Jiangsu Hengrui Medicine Co., Ltd., priority 2011, dated 2019)

Tests used:
T cells = experiment: Proliferation inhibition assay on T cells (PBMC, anti-CD3, IL-2); format: cell-based, human; details: Homo sapiens, T-cell, IL-2 10 ng/mL
From the text: The following in vitro assay is to determine the activity of the compounds of the present invention for inhibiting the proliferation of T cells.
The activity is represented by the IC50 value.
The general procedures of the assay are given as follows: first, the PBMC cell line (purchased from Shanghai Blood Center) was centrifuged, the supernatant was removed, and the cells counted. […] Then, the cells were washed 3 times, resuspended, diluted to 2×10^6/mL, and then mixed with recombinant human IL-2 (purchased from Peprotech, Catalog Number: 200-02) to a concentration of 10 ng/mL, and cultured for another 3 days. The cells were washed again 3 times, and diluted to 5×10^5/mL. 80 μL of the cells were seeded in each well of a 96-well cell culture plate. […] To he control wells, 10 μL culture medium were added. The plate was placed in an incubator. After incubating for 1 hr, negative control wells were mixed with 10 μL of culture medium, and the rest of the wells were mixed with IL-2 to a concentration of 10 ng/mL, and incubated continuously for 72 hours. […] IC50 values were calculated from the data of inhibition rates at various concentrations of the test compounds.

[1] = Pharmacokinetics assay in rats, intragastric administration; format: in vivo, Sprague-Dawley (SD) rats; details: SD rats, 10 mg/kg
Protocol: Rats were used as test animals. […] The pharmacokinetic behavior of the compounds of the present invention was studied and evaluated in rats.
56 Healthy adult Sprague-Dawley (SD) rats, half male and half female, purchased from SINO-BRITSH SIPPR/BK LAB.
The appropriate amount of test compounds were weighed and mixed with 1.0 mL of dimethyl sulfoxide to prepare a 1.0 mg/mL suspension.
After an overnight fast, SD rats were administered intragastrically at a dose of 10.0 mg/kg and an administration volume of 10 mL/kg.
The plasma samples were stored at −20° C. The rats were fed 2 hours after administration.
Content determination of the test compounds in rat plasma after intragastrically administering at different concentrations: 50 μL of rat plasmas taken at various time points after administration were mixed with 50 μL of internal standard solution and 100 μL of methanol and mixed for 3 minutes by a vortexer. The mixture was centrifuged for 10 minutes at 13,500 rpm. 10 μL of the supernatant was taken from the plasma sample and analyzed by LC-MS/MS.

[2] = tested on: human erythroid leukemia cell line TF-1; experiment: Proliferation inhibition assay on TF-1 cells mediated by IL-4; format: cell-based; details: 10 ng/mL IL-4, 72 hours
From the text: The following in vitro assay is to determine the activity of the compounds of the present invention for inhibiting the proliferation of human erythroid leukemia cell line TF-1.
The activity is represented by the IC50 value, which can not only reflect the activity of a test compound for inhibiting JAK2 and JAK3 kinase, but can also reflect the selectivity of a test compound for JAK2 and JAK3 kinase.
The general procedures of the assay are given as follows: first, the TF-1 cells (purchased from ATCC, Catalog number: CRL 2003) were seeded in a 96-well cell culture plate at a suitable cell concentration (8000 cells/mL medium), and 10 ng/mL IL-4 (Invitrogen, Catalog Number: PHC0044) were added to each well. Then 10× serial concentration gradient of test compounds solutions (10000, 1000, 100, 10, 1 and 0.1 nM) were prepared, and then the 10× compound solutions prepared above were added to the 96-well cell culture plate containing IL-4. After the cell plates were cultured continuously for 72 hours, the activity of the test compounds for inhibiting the cell proliferation was determined by using a Cell Counting Kit-8 (purchased from Dojindo, Catalog Number: CK04). IC50 values were calculated from the data of the inhibition rates at various concentrations of the test compounds.

JAK1 kinase = JAK1 kinase (Homo sapiens, UniProt P23458); experiment: Assay for inhibiting JAK1 kinase (in vitro kinase assay); format: biochemical; details: 20 μM ATP; read-out: IC50 (JAK1/Bio)
Protocol: In vitro activity of compounds of the present invention for inhibiting JAK1 kinase was determined by the following method.
IC50 values of test compounds was calculated from the data of the test compounds in inhibiting the activity of JAK1 kinase at different concentrations.

JAK3 kinase = JAK3 kinase (Homo sapiens, UniProt P52333); experiment: Assay for inhibiting JAK3 kinase (in vitro kinase assay); format: biochemical; details: 20 μM ATP; read-out: IC50 (JAK3/Bio)
Protocol: In vitro activity of compounds of the present invention for inhibiting JAK3 kinase was determined by the following method.

JAK2 kinase = JAK2 kinase (Homo sapiens, UniProt O60674); experiment: Assay for inhibiting JAK2 kinase (in vitro kinase assay); format: biochemical; details: 20 μM ATP; read-out: IC50 (JAK2/Bio)
Protocol: In vitro activity of compounds of the present invention for inhibiting JAK2 kinase was determined by the following method.

Chain of JAK2 kinase (O60674 whole entry, looked up): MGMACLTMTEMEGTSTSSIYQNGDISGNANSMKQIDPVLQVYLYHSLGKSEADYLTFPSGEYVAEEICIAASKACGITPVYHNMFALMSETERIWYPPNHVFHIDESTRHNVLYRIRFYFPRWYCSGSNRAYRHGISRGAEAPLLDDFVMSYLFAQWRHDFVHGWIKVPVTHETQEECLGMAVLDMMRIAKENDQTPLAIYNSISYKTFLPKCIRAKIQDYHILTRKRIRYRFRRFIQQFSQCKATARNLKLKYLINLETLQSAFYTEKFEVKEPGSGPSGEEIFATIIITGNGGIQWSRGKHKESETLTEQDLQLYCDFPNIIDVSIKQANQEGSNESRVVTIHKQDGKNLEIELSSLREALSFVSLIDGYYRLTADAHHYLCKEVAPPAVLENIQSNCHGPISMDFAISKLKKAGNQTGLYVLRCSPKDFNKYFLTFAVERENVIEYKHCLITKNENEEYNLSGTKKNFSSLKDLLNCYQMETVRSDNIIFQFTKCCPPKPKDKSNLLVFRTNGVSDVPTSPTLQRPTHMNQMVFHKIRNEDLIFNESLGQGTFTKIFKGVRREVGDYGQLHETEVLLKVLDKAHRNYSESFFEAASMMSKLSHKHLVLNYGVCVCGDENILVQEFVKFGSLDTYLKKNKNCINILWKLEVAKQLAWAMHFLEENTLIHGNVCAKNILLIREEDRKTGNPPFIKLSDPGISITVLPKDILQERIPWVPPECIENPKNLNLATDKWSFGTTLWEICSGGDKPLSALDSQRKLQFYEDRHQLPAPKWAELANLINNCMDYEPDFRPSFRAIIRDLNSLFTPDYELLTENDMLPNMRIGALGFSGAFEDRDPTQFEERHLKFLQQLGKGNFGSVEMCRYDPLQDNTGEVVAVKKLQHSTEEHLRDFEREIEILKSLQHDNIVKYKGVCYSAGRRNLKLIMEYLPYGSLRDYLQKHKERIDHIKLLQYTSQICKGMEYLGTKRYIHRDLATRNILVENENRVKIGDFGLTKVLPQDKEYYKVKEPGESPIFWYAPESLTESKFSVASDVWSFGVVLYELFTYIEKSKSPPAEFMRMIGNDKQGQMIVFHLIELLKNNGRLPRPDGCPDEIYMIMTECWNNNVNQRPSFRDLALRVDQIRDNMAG
Chain of JAK3 kinase (P52333 whole entry, looked up): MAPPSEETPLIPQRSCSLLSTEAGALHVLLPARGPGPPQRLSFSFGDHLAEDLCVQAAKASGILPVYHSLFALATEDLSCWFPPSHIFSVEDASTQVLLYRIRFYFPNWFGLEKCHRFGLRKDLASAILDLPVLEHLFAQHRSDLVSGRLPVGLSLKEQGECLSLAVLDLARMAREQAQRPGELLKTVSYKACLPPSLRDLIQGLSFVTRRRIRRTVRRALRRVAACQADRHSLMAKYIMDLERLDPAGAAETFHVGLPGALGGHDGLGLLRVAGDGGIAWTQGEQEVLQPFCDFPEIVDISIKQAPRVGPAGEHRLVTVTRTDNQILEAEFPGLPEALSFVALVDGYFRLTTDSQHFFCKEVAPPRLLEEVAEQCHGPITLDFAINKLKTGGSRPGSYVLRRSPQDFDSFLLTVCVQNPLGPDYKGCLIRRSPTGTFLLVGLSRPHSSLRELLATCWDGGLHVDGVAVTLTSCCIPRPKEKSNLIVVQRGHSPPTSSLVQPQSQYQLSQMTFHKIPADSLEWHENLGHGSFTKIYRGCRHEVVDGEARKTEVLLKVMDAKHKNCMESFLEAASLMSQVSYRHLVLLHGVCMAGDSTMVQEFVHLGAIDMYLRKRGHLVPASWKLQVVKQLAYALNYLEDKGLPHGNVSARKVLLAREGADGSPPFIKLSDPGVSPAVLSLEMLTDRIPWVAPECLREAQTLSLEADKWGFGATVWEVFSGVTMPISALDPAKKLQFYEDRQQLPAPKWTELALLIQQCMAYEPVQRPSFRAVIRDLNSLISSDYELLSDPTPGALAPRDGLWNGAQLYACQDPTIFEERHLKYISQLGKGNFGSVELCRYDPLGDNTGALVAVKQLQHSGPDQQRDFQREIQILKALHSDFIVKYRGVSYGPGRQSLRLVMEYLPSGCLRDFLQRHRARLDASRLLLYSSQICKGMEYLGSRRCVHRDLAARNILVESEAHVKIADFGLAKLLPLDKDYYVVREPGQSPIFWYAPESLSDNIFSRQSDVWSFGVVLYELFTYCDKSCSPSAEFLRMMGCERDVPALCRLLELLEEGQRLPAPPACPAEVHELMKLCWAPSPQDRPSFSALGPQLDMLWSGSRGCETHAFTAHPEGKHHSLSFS

Compound	IC50 (T cells; 72 h)	IC50 [2]	IC50 (T cells; 72 hours)	further results
COc1nsc(NC(=O)N2C[C@H]3C[C@H](N(C)c4ncnc5[nH]ccc45)C[C@H]3C2)n1 [Example 34, (3aR,5S,6aS)—N-(3-Methoxy-1,2,4-thiadiazol-5-yl)-5-(methyl(7H-pyrrolo[2,3-d]pyrimidin-4-yl)amino)hexahydrocyclopenta[c]pyrrole-2(1H)-carboxamide]	54 nM	44 nM	–	Half-Life t½ [1]: 2.10 ± 0.73 h
CN(c1ncnc2[nH]ccc12)[C@H]1C[C@@H]2CN(C(=O)CC#N)C[C@@H]2C1 [Example 8, 3-((3 aR,5S,6aS)-5-(Methyl(7H-pyrrolo[2,3-d]pyrimidin-4-yl)amino)hexahydrocyclopenta[c]pyrrol-2(1H)-yl)-3-oxopropanenitrile]	–	530 nM	460 nM	–
CN(c1ccnc2[nH]ccc12)[C@H]1C[C@@H]2CN(C(=O)CO)C[C@@H]2C1 [Example 112, 2-hydroxy-1-((3aR,5S,6aS)-5-(methyl(1H-pyrrolo[2,3-b]pyridin-4-yl)amino)hexahydrocyclopenta[c]pyrrol-2(1H)-yl) ethanone]	–	–	–	IC50 (JAK1 kinase): 96 nM
CN(c1ncnc2[nH]ccc12)[C@H]1C[C@@H]2CN(C(=O)Nc3nc(OCC(C)(C)O)ns3)C[C@@H]2C1 [Example 99]	54 nM	–	–	IC50 (JAK3 kinase): 110 nM; IC50 (JAK1 kinase): 0.3 nM; IC50 (JAK2 kinase): 5 nM; IC50 ([2]; TF-1, 72 h): 44 nM
CN(c1ncnc2[nH]ccc12)[C@H]1C[C@@H]2CN(C(=O)Nc3nncs3)C[C@@H]2C1 [Example 86, (3aR,5S,6aS)-5-(methyl(7H-pyrrolo[2,3-d]pyrimidin-4-yl)amino)-N-(1,3,4-thiadiazol-2-yl)hexahydrocyclopenta[c] pyrrole-2(1H)-carboxamide]	–	691 nM	130 nM	–
C[C@H](O)C(=O)N1C[C@H]2C[C@H](N(C)c3ncnc4[nH]ccc34)C[C@H]2C1 [Example 17, (S)-2-Hydroxy-1-((3aR,5R,6aS)-5-(methyl(7H-pyrrolo[2,3-d]pyrimidin-4-yl)amino)hexahydrocyclopenta[c]pyrrol-2(1H)-yl)propan-1-one]	29 nM	165 nM	–	Half-Life t½ [1]: 2.03 ± 0.82 h
CN(c1ncnc2[nH]ccc12)C1C[C@@H]2CCN(C(=O)CO)C[C@@H]2C1 (stereo partly drawn) [Example 37, 2-Hydroxy-1-((4aS,7aR)-6-(methyl(7H-pyrrolo[2,3-d]pyrimidin-4-yl)amino)hexahydro-1H-cyclopenta[c]pyridin-2(3H,4H,4aH,5H,6H,7H,7aH)-yl)ethanone]	–	123 nM	453 nM	–
COc1nsc(NC(=O)N2CC[C@H]3CC(N(C)c4ncnc5[nH]ccc45)C[C@H]3C2)n1 (stereo partly drawn) [Example 38, (4aS,7aR)—N-(3-Methoxy-1,2,4-thiadiazol-5-yl)-6-(methyl(7H-pyrrolo[2,3-d]pyrimidin-4-yl)amino)hexahydro-1H-cyclopenta[c]pyridine-2(3H)-carboxamide]	–	160 nM	71 nM	–
CCc1nsc(NC(=O)N2C[C@H]3C[C@H](N(C)c4ncnc5[nH]ccc45)C[C@H]3C2)n1 [Example 48, (3aR,5S,6aS)—N-(3-Ethyl-1,2,4-thiadiazol-5-yl)-5-(methyl(7H-pyrrolo[2,3-d]pyrimidin-4-yl)amino)hexahydrocyclopenta[c]pyrrole-2(1H)-carboxamide]	23 nM	27 nM	–	Half-Life t½ [1]: 2.43 ± 0.75 h
C[C@@H](O)C(=O)N1C[C@H]2C[C@H](N(C)c3ncnc4[nH]ccc34)C[C@H]2C1 [Example 19, (R)-2-Hydroxy-1-((3aR,5S,6aS)-5-(methyl(7H-pyrrolo[2,3-d]pyrimidin-4-yl)amino)hexahydrocyclopenta[c]pyrrol-2(1H)-yl)propan-1-one]	724 nM	711 nM	–	–
CN(c1ncnc2[nH]ccc12)[C@H]1C[C@@H]2CN(C(=O)CO)C[C@@H]2C1 [Example 6, 2-Hydroxy-1-((3aR,5S,6aS)-5-(methyl(7H-pyrrolo[2,3-d]pyrimidin-4-yl)amino)hexahydrocyclopenta[c]pyrrol-2(1H)-yl)ethanone]	414 nM	–	–	IC50 ([2]; TF-1, 72 h): 457 nM
CN(c1ncnc2[nH]cc(F)c12)[C@H]1C[C@@H]2CN(C(=O)CO)C[C@@H]2C1 [Example 128, 1-((3aR,5S,6aS)-5-((5-fluoro-7H-pyrrolo[2,3-d]pyrimidin-4-yl) (methyl)amino)hexahydrocyclopenta[c]pyrrol-2(1H)-yl)-2-hydroxyethanone]	167 nM	–	–	IC50 ([2]; TF-1, 72 h): 252 nM
